Test results from patent publication US9345742B2, “Aminostatin derivatives for the treatment of arthrosis” (MERCK PATENT GMBH, priority 2011, dated 2016).

Tests used:
[1] = molecular target: cathepsin D isolated from the human liver (Homo sapiens (Human), UniProt P07339); experiment: In-vitro fluorescence assay for identification of cathepsin D inhibitors; format: biochemical; conditions: cathepsin D 1.4 nM, pH 5.5; read-out: CatD assay IC50-
Outline: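 A FRET-quenched MCA/Dnp peptide (5 μM final) was cleaved by 1.4 nM liver-derived human cathepsin D at pH 5.5 in sodium acetate buffer containing CHAPS and 1.25% DMSO. Enzyme and compound dilutions were first incubated 10 min.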

[2] = molecular target: recombinant human renin (Homo sapiens (Human), UniProt P00797); experiment: In-vitro fluorescence assay for identification of renin-inhibitory activity; format: biochemical; conditions: recombinant human renin 10 nM, pH 7.2; read-out: Renin selectivity IC50
Outline: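 Recombinant human renin (10 nM) pre-incubated 15 min at RT with serially diluted compound in 50 mM Mops pH 7.2, 1.5% DMSO, 0.1% Igepal, 0.5% BSA; Edans/Dabcyl FRET peptide (5 µM final) added, 60 min at 37 °C; cleavage read as fluorescence increase (ex 340/em 495 nm) against no-compound wells.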

recombinant human renin, sequence (P00797 67-406): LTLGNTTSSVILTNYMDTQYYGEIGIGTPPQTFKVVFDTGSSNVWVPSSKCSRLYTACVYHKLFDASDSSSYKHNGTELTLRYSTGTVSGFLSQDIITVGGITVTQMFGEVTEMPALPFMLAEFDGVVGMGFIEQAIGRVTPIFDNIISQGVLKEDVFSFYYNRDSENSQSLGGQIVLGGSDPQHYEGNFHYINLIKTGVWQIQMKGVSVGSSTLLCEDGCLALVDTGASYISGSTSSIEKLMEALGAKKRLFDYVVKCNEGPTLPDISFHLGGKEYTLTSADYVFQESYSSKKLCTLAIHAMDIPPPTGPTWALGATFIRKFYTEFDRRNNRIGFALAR
cathepsin D isolated from the human liver, sequence (P07339 65-161): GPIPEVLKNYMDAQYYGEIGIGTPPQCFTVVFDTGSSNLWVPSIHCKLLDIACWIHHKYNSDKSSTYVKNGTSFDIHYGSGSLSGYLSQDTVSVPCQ
cathepsin D isolated from the human liver, sequence (P07339 169-412): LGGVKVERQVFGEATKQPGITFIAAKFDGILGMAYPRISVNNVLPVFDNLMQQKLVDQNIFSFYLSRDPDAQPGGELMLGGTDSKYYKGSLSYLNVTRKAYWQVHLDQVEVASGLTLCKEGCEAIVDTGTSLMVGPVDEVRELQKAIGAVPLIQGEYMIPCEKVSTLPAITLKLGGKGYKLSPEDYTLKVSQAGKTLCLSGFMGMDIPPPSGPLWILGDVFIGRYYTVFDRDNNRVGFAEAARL

IC50 [1]: 9.9 nM | IC50 [2]: > 30000 nM
SMILES: CCC(CC)NC(=O)[C@@H](NC(=O)C[C@H](N)[C@H](Cc1ccccc1)NC(=O)[C@@H](NC(=O)[C@H](CC(C)C)NC(=O)CC(C)C)C(C)C)[C@@H](C)CC [Compound 39, N-[(1S,2S)-1-(1-Ethylpropylcarbamoyl)-2-methylbutyl]-(S)-3-(S)-amino-4-{(S)-3-methyl-2-[(S)-4-methyl-2-(3-methylbutyryl-amino)pentanoylamino]butyrylamino}-5-phenylpentanamide]
